Laboratory results reported in US4539326A, “5-Oxo-5H-(1)benzopyrano(2,3-b)pyridine derivatives, their production and use as anti-inflammatory agents” (Takeda Chemical Industries, Ltd., priority 1982, dated 1985).

Tests used:
[1] = system: adjuvant arthritis; experiment: Action of inhibiting adjuvant arthritis (M. butyricum adjuvant, oral, 14 days); type: in vivo, male Sprague-Dawley rats (6-week old); conditions: for Systemic inflammation score / Increase in body weight / Weight of thymus: 50 mg/kg oral once a day; for Systemic inflammation score: max score 20; for Increase in body weight / Weight of thymus: day 14; for Restraint of the increase in body weight (result in words) / Systemic inflammation score (result in words) / Weight of thymus (result in words): oral once a day for 14 days, compared with control group
Description: As experimental animal, male Sprague-Dawley rats (6-week old) were used.
(§1) Adjuvant arthritis was induced by suspending killed cells of mycobacteria (M. butyricum strain) in liquid paraffin and injecting the rats with the resultant suspension beneath the skin of the hind-paw. The suspension obtained by suspending 70 mg of the test specimen [disodium(7-ethyl-3-carboxylato-5-oxo-5H-[1]benzopyrano[2,3-b]pyridin-2-yl)acetate] in 7 ml of 4% gum arabic was administered orally to rats once a day at a rate of 0.5 ml per 100 g of body weight for the consecutive 14 days after the injection of adjuvant. The degrees or severities of the inflammations induced on the other hind paw not injected with adjuvant, front paws, tail and ears were graded 1 to 5, and the grades were summed up for each animal, with the highest mark in total for the four body spots being 20. In addition, effects exerted by the administration on the increase in body weight (difference between the body weights measured after 14 days and on the day of sensitization) and the weight of thymus were investigated, and were compared with those obtained with the control group.
as §1, with “in liquid paraffine and injecting” for “in liquid paraffin and injecting”, “skin of hind-paw. The” for “skin of the hind-paw. The”, “test specimen [ethyl(7-ethyl-3-ethoxycarbonyl-5-oxo-5H-[1]benzopyrano[2,3-b]pyridin-2-yl)acetate] in 7” for “test specimen [disodium(7-ethyl-3-carboxylato-5-oxo-5H-[1]benzopyrano[2,3-b]pyridin-2-yl)acetate] in 7”

[2] = system: carrageenin-induced edema; experiment: rat carrageenin-induced edema method (antiinflammatory activity); type: in vivo
[3] = system: phenylquinone writhing; experiment: mouse phenylquinone writhing method (analgesic activity); type: in vivo

| SMILES | Systemic inflammation score ([1]; Experiment 2 (Table 2), day 12 after sensitization, control 6.7 ± 0.8, ** P <0.01) | Increase in body weight ([1]; Experiment 2 (Table 2), control 42.5 ± 3.2) [g] | Weight of thymus ([1]; Experiment 2 (Table 2), control 286.5 ± 34.3) [mg] | Systemic inflammation score ([1]; Experiment 2 (Table 2), day 14 after sensitization, control 8.0 ± 0.5, ** P <0.01) | Restraint of the increase in body weight (result in words) [1] | Systemic inflammation score (result in words) [1] | Weight of thymus (result in words) [1] | Systemic inflammation score ([1]; Experiment 1 (Table 1), day 12 after sensitization, control 7.0 ± 0.9, * P <0.05) | Increase in body weight ([1]; Experiment 1 (Table 1), control 42.2 ± 2.5) [g] | Weight of thymus ([1]; Experiment 1 (Table 1), control 211.7 ± 21.5, * P <0.05) [mg] | Systemic inflammation score ([1]; Experiment 1 (Table 1), day 14 after sensitization, control 8.8 ± 0.7, * P <0.05) | Antiinflammatory activity [2] | Analgesic activity [3] |
| --- | --- | --- | --- | --- | --- | --- | --- | --- | --- | --- | --- | --- | --- |
| CCOC(=O)Cc1nc2oc3ccc(CC)cc3c(=O)c2cc1C(=O)OCC [ethyl(7-ethyl-3-ethoxycarbonyl-5-oxo-5H-[1]benzopyrano[2,3-b]pyridin-2-yl)acetate] | 3.3 ± 0.7 | 43.3 ± 8.6 | 444.2 ± 69.9 | 4.0 ± 1.0 | improve the systemic inflammation score and the restraint of the increase in body weight | improve the systemic inflammation score | tendency to increase the weight of thymus |  |  |  |  |  |  |
| CCc1ccc2oc3nc(CC(=O)O)c(C(=O)O)cc3c(=O)c2c1 [disodium(7-ethyl-3-carboxylato-5-oxo-5H-[1]benzopyrano[2,3-b]pyridin-2-yl)acetate] |  |  |  |  | improve the systemic inflammation score and the restraint of the increase in body weight | improve the systemic inflammation score | increase the weight of thymus | 3.7 ± 1.1 | 50.0 ± 3.1 | 375 ± 52.0 | 4.7 ± 1.6 | neither to exhibit the antiinflammatory activity | neither to exhibit the antiinflammatory activity in the rat carrageenin-induced edema method and the analgesic activity |
